Test results from US9234018B2, “Compositions and methods for the treatment of VprBP-related cancers” (University of Southern California, priority 2013, dated 2016).

Legend:
AURKB = AURKB (Homo sapiens, UniProt Q96GD4); experiment: Kinase selectivity panel; type: biochemical
BCK = experiment: Kinase selectivity panel; type: biochemical, human
BUB1 = BUB1 (Homo sapiens, UniProt O43683); experiment: Kinase selectivity panel; type: biochemical
CDK7 = CDK7 (Homo sapiens, UniProt P50613); experiment: Kinase selectivity panel; type: biochemical
DNAPK = DNAPK (Homo sapiens, UniProt P78527); experiment: Kinase selectivity panel; type: biochemical
DYRK1 = DYRK1 (Homo sapiens, UniProt Q13627); experiment: Kinase selectivity panel; type: biochemical
GSK3β = GSK3β (Homo sapiens, UniProt P49841); experiment: Kinase selectivity panel; type: biochemical
Sequence of GSK3β (P49841 whole entry): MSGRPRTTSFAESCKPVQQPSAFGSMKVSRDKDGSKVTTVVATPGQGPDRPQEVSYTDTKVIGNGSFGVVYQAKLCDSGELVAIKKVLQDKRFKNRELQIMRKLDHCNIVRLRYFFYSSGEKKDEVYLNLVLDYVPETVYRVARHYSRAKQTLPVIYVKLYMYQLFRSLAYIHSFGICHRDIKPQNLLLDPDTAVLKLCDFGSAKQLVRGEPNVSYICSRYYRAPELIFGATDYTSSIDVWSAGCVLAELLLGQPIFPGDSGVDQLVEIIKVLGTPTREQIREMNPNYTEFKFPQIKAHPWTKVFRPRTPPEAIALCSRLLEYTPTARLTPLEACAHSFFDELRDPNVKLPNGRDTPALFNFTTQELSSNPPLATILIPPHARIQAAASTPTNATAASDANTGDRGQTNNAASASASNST

LCK = LCK (Homo sapiens, UniProt P06239); experiment: Kinase selectivity panel; type: biochemical
PKN2 = PKN2 (Homo sapiens, UniProt Q16513); experiment: Kinase selectivity panel; type: biochemical
Sequence of PKN2 (Q16513 whole entry): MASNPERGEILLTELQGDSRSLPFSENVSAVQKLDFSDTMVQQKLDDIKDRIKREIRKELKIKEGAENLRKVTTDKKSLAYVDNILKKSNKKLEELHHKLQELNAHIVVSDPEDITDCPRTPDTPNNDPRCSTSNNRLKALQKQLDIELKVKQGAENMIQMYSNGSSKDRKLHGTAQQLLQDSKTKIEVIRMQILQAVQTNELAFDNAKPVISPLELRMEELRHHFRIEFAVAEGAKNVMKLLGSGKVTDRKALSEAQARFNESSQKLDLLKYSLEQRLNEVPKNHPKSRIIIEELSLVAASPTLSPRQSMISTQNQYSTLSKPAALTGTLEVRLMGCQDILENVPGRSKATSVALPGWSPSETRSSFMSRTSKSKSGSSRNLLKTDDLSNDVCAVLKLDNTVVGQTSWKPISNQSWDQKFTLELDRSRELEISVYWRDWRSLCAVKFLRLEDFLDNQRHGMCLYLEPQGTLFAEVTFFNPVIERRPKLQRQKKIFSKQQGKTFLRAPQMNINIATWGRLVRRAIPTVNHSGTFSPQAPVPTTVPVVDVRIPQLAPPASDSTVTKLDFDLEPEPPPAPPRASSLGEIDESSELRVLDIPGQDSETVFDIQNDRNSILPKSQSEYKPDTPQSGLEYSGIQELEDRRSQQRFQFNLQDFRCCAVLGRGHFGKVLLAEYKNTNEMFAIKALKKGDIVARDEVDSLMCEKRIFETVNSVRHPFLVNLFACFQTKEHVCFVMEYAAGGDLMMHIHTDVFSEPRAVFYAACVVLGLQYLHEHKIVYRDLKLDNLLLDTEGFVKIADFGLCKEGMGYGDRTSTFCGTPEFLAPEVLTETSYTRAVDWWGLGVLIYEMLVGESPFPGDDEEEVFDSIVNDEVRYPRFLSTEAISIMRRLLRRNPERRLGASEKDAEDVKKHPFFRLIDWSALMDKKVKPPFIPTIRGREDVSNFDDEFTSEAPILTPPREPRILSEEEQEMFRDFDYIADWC

PLK2 = PLK2 (Homo sapiens, UniProt Q9NYY3); experiment: Kinase selectivity panel; type: biochemical
Sequence of PLK2 (Q9NYY3 whole entry): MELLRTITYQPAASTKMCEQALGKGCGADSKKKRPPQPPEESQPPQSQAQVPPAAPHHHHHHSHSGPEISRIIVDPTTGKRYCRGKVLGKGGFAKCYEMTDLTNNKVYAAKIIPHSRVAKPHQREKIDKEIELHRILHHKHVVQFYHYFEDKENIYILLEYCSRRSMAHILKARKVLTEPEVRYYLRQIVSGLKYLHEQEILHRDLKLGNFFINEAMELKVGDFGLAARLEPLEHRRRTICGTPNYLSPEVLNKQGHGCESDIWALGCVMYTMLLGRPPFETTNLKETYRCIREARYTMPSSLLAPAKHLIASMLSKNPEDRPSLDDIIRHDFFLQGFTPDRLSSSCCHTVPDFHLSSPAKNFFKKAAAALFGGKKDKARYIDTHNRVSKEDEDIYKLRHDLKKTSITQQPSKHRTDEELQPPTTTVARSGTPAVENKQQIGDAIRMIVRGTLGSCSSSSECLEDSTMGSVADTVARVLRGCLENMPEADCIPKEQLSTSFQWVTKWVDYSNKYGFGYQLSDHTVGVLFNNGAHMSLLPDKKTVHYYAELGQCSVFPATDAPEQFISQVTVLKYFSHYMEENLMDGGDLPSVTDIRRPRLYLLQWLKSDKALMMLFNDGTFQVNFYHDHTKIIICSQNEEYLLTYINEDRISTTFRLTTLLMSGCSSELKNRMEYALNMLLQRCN

RSK2 = RSK2 (Homo sapiens, UniProt P51812); experiment: Kinase selectivity panel; type: biochemical
Sequence of RSK2 (P51812 whole entry): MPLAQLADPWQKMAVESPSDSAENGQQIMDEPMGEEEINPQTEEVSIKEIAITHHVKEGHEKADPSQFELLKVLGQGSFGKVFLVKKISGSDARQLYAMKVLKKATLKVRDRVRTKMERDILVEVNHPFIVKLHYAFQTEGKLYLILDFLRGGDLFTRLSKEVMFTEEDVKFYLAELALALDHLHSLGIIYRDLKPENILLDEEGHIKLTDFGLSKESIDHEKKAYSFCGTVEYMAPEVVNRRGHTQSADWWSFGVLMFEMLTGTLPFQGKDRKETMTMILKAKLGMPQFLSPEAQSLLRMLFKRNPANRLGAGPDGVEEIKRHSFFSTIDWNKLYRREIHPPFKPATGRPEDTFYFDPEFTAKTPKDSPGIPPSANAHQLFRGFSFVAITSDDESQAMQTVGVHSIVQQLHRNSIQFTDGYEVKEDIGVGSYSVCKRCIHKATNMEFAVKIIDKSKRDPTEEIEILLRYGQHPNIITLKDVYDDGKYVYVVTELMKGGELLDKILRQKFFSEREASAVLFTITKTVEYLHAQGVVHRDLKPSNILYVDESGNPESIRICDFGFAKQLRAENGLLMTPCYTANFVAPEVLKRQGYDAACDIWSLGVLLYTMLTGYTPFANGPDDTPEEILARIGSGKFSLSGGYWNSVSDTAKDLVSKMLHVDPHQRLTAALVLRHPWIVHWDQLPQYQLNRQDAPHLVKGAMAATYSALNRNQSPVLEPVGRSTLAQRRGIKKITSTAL

VRK2 = VRK2 (Homo sapiens, UniProt Q86Y07); experiment: Kinase selectivity panel; type: biochemical
Sequence of VRK2 (Q86Y07 whole entry): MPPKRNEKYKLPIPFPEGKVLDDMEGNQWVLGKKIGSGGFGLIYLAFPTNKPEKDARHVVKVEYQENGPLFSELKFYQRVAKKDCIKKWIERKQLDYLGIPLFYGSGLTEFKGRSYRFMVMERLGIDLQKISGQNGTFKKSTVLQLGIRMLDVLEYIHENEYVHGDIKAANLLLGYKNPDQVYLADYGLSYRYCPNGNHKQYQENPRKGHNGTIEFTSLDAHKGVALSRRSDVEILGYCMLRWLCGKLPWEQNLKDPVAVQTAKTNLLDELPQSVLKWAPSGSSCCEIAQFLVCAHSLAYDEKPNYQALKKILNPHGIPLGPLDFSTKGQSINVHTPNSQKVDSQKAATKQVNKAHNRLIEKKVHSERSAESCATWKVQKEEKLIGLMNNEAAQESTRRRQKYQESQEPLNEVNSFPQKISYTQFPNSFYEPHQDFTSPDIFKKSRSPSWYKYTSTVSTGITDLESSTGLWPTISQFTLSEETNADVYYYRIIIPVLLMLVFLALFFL

H2AT120p in DU145 cells = experiment: Cellular H2AT120p by western blotting and immunostaining; type: cell-based, human
Protocol: To this end, Applicants' inhouse small-molecule library of 5,000 compounds was screened. […] To evaluate their cellular effects, DU145 cells were treated with the compounds in the concentration range of […] for 24 hr. […] Thus, although Applicants cannot exclude the possibility that other kinases that were not included in the selectivity screen might be affected, B32B3 can be defined as a highly specific VprBP inhibitor at present.
The levels of VprBP and H2AT120p in tumors tissues were determined in FDA human tumor organ tissue microarray, which includes 16 types of organ cancer with matched or unmatched adjacent normal tissue (US Biomax, Inc). The formalin-fixed, paraffin-embedded sections were blocked by treating with blocking reagent (50 mM Tris-HCl, pH 7.5, 150 mM NaCl, 0.3% Triton X-100, and 5% normal goat serum) for 30 min at room temperature and incubated with VprBP and H2AT120p antibodies at 4° C. overnight. Immunodetection was performed using ABC reagent (Vectorstain). DAB (Vector Lab) was used for color development and hematoxylin (Sigma) was used for counterstaining. The intensity and distribution patterns of staining were evaluated by semiquantitative immunohistochemical assessment. The intensity of staining was graded from − to +++ (−, no staining; +, weak staining; ++, moderate staining; and +++, strong staining) The distribution of staining was classified from 0 to 3 (0, 0-20%; 1, 21-50%; 2, 51-80%; 3, 81-100%). For immunofluorescence of DU145 cells, cells were treated with DMSO or B32B3 (0.5 μM) for 24 h and fixed with 4% paraformaldehyde for 15 min. The corresponding samples were permeabilized with 0.3% Triton X-100 for 15 min and immunostained with H2AT120p antibody.

DU145 cells = experiment: Cell proliferation (MTT) and soft agar colony formation; type: cell-based, human; details: MTT 72 h and soft agar colonies
Protocol: Cell proliferation was assessed by the 3-(4,5-dimethylthiazol-2-yl)-2,5-diphenyltetrazolium bromide (MTT) assay as previously described (Kim, K. et al. (2012) Mol. Cell Biol. 32:783-796). To evaluate IC50 of compound B32B3 and B20H6, DU145 cells were treated with various concentrations (0.001, 0.005, 0.01, 0.05, 0.1, 1, 5, 10, and 20 μM) of compounds for 72 h and viability was measured by MTT assays. For soft agar colony formation assays, DU145 cells were treated with B32B3 (0.5, 1, and 3 μM). Cells were suspended in semisolid medium (DMEM 10% FBS plus 0.3% ultra pure noble agar) at concentrations of 2×10^5 cells/ml, added over a layer of 0.6% agar in RPMI on 35 mm plate and incubated for an additional 21 days. The colonies in each well were stained with 0.005% crystal violet in 20% ethanol, counted and photographed. All assays were run in triplicate, and results presented are the average of three individual experiments.

MLC cells = experiment: Cell viability by MTT assay in normal cells; type: cell-based; details: concentrations up to 5 mM, 24 h; cells lacking VprBP-mediated H2AT120p
Protocol: FIGS. 8A-8I show characterization of B32B3 as a small-molecule VprBP kinase inhibitor, related to FIG. 4. (FIG. 8A) DU145 cells were infected with mock lentiviruse, VprBP-expressing shRNA lentivirus or Flag-VprBP-expressing lentivirus, and treated with the indicated concentrations of B32B3 for 24 h. Changes in H2AT120p as the results of B32B3 treatment were determined by the quantitative estimates of Western band intensity. Results represent the means±S.D. of three independent experiments. (FIG. 8B) DU145 cells were treated with the indicated concentrations of B32B3 and B20H6 for 72 h. Cell viability was measured by the MTT assay and was normalized to cells not exposed to the compounds. Data represent the means±S.D. of three independent experiments. […] (FIG. 8D) MLC cells were treated with B32B3 at the indicated doses for 24 h, and cell viability was assessed by MTT assay. […] (FIG. 8E) VprBP-mediated H2AT120p was analyzed in the presence of increasing concentrations of ATP and B32B3. (FIG. 8F) Body weights of vehicle or B32B3-treated mice were monitored during the treatment period. […] The stability of B32B3 in plasma was determined by LC-MS/MS at the indicated time points. […] Blood samples were collected at the indicated time points, and the concentration of B32B3 in plasma was analyzed by HPLC coupled mass spectrophotometry. […]

Sequence of AURKB (Q96GD4 whole entry): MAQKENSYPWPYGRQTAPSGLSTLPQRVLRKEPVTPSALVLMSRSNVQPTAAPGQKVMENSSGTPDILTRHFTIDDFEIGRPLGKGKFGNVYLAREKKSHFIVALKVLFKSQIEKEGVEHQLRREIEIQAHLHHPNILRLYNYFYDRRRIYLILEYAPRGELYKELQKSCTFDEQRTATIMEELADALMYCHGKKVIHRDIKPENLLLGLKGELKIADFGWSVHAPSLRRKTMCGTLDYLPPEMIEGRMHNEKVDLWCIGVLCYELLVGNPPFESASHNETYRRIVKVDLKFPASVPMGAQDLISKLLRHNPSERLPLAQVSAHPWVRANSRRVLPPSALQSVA
Sequence of BUB1 (O43683 whole entry): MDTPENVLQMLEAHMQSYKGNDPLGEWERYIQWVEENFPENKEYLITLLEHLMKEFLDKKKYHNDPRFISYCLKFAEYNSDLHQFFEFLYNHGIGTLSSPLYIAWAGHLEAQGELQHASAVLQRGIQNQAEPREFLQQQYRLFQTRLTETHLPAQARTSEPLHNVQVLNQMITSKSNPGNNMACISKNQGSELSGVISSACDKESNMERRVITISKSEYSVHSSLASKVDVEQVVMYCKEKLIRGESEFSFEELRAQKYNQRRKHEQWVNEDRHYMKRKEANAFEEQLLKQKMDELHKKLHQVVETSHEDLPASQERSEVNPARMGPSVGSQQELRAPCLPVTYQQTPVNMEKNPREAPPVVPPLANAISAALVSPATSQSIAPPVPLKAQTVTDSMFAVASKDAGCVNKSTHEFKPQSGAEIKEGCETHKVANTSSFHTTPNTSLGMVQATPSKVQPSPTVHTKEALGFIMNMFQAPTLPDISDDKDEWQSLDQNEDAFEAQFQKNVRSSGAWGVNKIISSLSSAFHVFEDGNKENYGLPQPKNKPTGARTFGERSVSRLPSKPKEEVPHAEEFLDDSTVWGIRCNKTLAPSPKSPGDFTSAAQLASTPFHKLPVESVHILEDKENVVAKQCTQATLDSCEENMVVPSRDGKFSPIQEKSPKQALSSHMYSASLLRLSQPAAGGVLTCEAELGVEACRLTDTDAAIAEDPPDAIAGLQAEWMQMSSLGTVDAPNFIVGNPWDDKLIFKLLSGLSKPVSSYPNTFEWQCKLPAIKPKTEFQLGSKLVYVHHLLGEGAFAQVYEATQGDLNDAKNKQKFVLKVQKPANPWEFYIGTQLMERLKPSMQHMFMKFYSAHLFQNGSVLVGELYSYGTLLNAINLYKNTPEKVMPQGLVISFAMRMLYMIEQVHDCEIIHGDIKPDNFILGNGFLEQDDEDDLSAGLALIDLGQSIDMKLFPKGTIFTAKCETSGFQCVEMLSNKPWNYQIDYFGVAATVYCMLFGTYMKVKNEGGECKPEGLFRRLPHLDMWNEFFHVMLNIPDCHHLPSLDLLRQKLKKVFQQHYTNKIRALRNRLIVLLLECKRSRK

c1ccc2c(CNNc3ncnc4sc5c(c34)CCCC5)c[nH]c2c1 [B32B3]
IC50 (AURKB): > 10 µM
IC50 (BCK): > 10 µM
IC50 (BUB1): > 10 µM
IC50 (CDK7): > 10 µM
IC50 (DNAPK): > 10 µM
IC50 (DYRK1): > 10 µM
IC50 (GSK3β): > 10 µM
IC50 (LCK): > 10 µM
IC50 (PKN2): > 10 µM
IC50 (PLK2): > 10 µM
IC50 (RSK2): 8.6 µM
IC50 (VRK2): > 10 µM
Potency in cells overexpressing VprBP (H2AT120p in DU145 cells; DU145 cells overexpressing VprBP, 24 h): considerably less potent
IC50 (H2AT120p in DU145 cells; Homo sapiens, DU-145, DU145 cells, 24 hr, 0-5 mM, read-out: IC50 for inhibition of H2AT120p): 500 nM
Decrease in IC50 (H2AT120p) upon knockdown of VprBP (H2AT120p in DU145 cells; VprBP-knockdown DU145 cells, 24 h): circa 2 fold
Effect on cell proliferation / cell growth (DU145 cells): inhibition of cell proliferation
Effect on proliferation of MLC cells (MLC cells): minimally antagonized
